Values of other authors in patent US8754089B2, “Heterocyclic compounds and their uses” (Amgen Inc., priority 2009, dated 2014).

Tests used:
[1] = in vivo; cited from earlier work
[2] = in vivo; cited from earlier work; remark: listed apart in the source
neutrophil [3] = details: cited from earlier work
neutrophil [4] = details: cited from earlier work; remark: listed apart in the source
protein kinases = details: cited from earlier work
p110δ = p110δ (Homo sapiens (Human), UniProt O00329); details: cited from earlier work
[5] = ovalbumin-induced airway inflammation; cited from earlier work

p110δ, sequence (O00329 whole entry, looked up, species assumed): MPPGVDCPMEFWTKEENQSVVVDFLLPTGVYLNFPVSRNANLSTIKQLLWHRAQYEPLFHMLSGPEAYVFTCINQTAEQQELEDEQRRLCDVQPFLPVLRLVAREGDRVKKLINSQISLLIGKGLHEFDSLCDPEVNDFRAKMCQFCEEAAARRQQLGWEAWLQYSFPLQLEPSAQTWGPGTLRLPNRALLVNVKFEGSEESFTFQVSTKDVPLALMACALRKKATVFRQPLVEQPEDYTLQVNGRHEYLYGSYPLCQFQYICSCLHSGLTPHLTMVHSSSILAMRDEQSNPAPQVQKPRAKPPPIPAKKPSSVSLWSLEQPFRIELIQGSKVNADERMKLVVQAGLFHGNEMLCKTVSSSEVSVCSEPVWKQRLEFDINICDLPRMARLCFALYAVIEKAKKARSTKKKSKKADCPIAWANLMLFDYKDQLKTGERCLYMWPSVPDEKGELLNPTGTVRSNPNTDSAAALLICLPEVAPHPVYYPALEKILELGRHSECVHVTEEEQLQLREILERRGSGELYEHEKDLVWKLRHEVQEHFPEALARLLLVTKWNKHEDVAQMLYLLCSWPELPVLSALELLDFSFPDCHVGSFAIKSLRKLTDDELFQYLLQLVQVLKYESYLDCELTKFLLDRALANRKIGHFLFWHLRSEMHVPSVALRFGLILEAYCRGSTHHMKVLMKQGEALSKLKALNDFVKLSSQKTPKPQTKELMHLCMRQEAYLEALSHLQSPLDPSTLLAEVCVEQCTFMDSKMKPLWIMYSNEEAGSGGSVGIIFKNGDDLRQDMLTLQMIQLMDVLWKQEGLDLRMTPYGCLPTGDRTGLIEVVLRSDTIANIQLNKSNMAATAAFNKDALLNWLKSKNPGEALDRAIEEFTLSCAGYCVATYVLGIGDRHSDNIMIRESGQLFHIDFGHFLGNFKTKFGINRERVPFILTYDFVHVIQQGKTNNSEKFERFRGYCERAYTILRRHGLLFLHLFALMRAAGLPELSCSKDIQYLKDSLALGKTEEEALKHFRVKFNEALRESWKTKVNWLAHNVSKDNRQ
p110δ, sequence (P27986 whole entry partner, looked up, species assumed): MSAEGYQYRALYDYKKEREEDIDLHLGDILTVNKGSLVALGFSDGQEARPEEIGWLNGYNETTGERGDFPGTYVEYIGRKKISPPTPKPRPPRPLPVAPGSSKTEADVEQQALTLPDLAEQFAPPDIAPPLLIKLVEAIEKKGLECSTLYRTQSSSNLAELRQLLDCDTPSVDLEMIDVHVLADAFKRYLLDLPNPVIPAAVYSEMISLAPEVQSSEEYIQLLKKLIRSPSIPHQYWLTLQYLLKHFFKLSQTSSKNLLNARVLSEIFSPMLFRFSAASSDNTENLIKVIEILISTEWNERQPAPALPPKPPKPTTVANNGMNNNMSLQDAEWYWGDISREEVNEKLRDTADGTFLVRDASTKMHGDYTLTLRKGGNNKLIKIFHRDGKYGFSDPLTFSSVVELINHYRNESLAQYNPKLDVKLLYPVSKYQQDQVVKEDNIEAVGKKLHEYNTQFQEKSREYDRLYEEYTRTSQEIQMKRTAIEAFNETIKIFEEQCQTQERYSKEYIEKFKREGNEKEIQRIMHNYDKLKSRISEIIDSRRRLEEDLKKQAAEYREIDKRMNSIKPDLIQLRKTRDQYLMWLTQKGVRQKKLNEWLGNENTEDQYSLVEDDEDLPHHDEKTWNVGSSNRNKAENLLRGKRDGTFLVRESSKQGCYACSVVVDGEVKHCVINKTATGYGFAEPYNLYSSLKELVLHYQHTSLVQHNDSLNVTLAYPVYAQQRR

O=C1NC(=O)/C(=C\c2ccc3nccnc3c2)S1 [AS 605240]
onset of disease in a model of systemic lupus erythematosis [1]: delay onset of disease | efficacy in a mouse model of rheumatoid arthritis [2]: efficacious

O=c1cc(N2CCOCC2)oc2c(-c3ccccc3)cccc12 [LY294002]
superoxide release (neutrophil [3]): block | neutrophil migration (neutrophil [4]): block

COC[C@H]1OC(=O)c2coc3c2[C@@]1(C)C1=C(C3=O)[C@@H]2CCC(=O)[C@@]2(C)C[C@H]1OC(C)=O [wortmannin]
superoxide release (neutrophil [3]): block | neutrophil migration (neutrophil [4]): block

Cc1ccccc1-n1c(Cn2cnc3c(N)ncnc32)nc2cccc(C)c2c1=O [IC87114]
activity against any protein kinases tested (protein kinases): no activity | inhibition of p110δ (p110δ): high nanomolar range (triple digit) | inflammation and disease in a murine model of asthma [5]: significantly ameliorate inflammation and disease
